One may read the IC50 as the midpoint of a concentration-inhibition curve. Low values mean higher potency, high ones lower potency.

We go through 31 molecules from patent publication US10039747B2, “Tetrahydrocyclopentapyrrole derivatives and a method for preparing the same” (Daewoong Pharmaceutical Co., Ltd., priority 2013, dated 2018).

SMILES strings stand for the structures.

The target of this assay is T1, H+/K+-ATPase (Sus scrofa, UniProt P19156).
T1 construct: reaction buffer solution (60 mmol/l Tris-HCl buffer solution, pH 7.4) containing hog gastric vesicle; from tissue; host or cells: hog stomach (gastric vesicles, by centrifugation after Rabon et al. 1988)
T1 sequence (P19156 2-1034 limits assumed): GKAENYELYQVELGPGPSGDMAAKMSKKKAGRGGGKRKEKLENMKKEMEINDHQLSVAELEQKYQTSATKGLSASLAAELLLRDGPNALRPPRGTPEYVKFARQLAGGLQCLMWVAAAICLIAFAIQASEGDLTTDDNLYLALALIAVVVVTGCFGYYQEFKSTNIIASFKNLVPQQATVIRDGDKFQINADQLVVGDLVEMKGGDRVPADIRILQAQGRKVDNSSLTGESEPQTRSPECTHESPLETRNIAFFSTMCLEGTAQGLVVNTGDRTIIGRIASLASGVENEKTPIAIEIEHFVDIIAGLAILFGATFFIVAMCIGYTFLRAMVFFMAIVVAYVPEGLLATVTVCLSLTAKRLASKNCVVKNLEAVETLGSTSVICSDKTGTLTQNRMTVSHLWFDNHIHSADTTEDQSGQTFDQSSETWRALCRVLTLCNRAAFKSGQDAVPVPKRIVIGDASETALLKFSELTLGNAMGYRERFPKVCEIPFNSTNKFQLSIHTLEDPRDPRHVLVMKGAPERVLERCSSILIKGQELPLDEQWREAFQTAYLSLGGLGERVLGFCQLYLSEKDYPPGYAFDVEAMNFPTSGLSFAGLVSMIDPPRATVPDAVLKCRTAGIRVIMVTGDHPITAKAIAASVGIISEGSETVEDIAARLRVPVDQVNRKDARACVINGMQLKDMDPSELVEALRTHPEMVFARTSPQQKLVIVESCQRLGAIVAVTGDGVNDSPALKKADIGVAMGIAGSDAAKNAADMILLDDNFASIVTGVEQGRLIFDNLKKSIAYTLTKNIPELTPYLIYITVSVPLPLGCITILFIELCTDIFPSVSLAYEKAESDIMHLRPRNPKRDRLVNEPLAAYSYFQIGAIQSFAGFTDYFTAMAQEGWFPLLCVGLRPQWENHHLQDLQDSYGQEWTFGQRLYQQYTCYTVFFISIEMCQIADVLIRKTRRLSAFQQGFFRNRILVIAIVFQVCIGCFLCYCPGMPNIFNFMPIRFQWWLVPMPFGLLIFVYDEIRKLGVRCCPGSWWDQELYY
T1 sequence (P18434 whole entry partner): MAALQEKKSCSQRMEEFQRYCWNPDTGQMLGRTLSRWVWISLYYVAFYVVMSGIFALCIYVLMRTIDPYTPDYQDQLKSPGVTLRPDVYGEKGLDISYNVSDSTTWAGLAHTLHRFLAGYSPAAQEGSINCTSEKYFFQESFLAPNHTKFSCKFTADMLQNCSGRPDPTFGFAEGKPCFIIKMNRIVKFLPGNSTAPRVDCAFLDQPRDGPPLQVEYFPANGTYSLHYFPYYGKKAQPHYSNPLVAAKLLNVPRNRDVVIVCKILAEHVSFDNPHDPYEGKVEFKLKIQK
Description: Inhibition of proton pump (H+/K+-ATPase) activity in hog gastric vesicles. In kind it is biochemical. To be noted: K+ specific H+/K+-ATPase activity, pH 7.4, 37° C. for 40 minutes, malachite green. The protocol: 1) Preparation of Gastric Vesicles
Gastric vesicles were prepared from hog stomach by centrifugation (Edd C. Rabon et al., Preparation of Gastric H^+,K^+-ATPase, Methods in enzymology, vol. 157 Academic Press Inc., (1988), pp. 649-654). The protein contents of the prepared gastric vesicles were quantified with a Bicinchoninic Acid (BCA) kit.
2) Measurement of Effect of Inhibiting Proton Pump (H^+/K^+-ATPase) Activity
The effect of inhibiting proton pump activity by the compound of the present invention was measured in a 96-well plate. In this experiment, K^+ specific H^+/K^+-ATPase activity was calculated based on the difference between H^+/K^+-ATPase activity in the presence of K^+ ions and H^+/K^+-ATPase activity in the absence of K^+ ions. In the 96-well plate, to negative and positive control groups, 0.5% dimethylsulfoxide (DMSO) in buffer was added, and to the test groups, the compound of the present invention was added. All the analyses were conducted at room temperature with the reaction volume of 100 μl. To a reaction buffer solution (60 mmol/l Tris-HCl buffer solution, pH 7.4) containing hog gastric vesicle, DMSO and each concentration of compound were added, and then, 10 μl of a 10 mmol/l adenosine triphosphate tris buffer solution (60 mmol/l Tris-HCl buffer solution, pH 7.4) was added to initiate an enzyme reaction. The enzyme reaction was conducted at 37° C. for 40 minutes, 50 μl of a malachite green solution (0.12% malachite green solution, 5.8% ammonium molybdate and 11% tween 20 were mixed at a ratio of 100:67:2 in 6.2 N sulfuric acid) was added to stop the reaction, and 50 μl of 15.1% sodium citrate was added. During the reaction, the amount of monophosphate (Pi) was measured at 570 nm using micro plate reader (FLUOstar Omega, BMG Company). Inhibition rate (%) was measured from the activity values of the control groups and the activity values of various concentrations of the test compound, and IC50 of the test compound was calculated from each % inhibition value of the compound using Logistic 4-parameter function of Sigmaplot 8.0 program.
With `CNC1CCc2c1cn(S(=O)(=O)c1cccc(Cl)c1)c2-c1ccc(C)o1` (stereo not shown) [Example 32, 2-((3-chlorophenyl)sulfonyl)-N-methyl-1-(5-methylfuran-2-yl)-2,4,5,6-tetrahydrocyclopenta[c]pyrrol-4-amine], inhibition was half-maximal at 450 nM (IC50).

The molecule `CNC1CCc2c1cn(S(=O)(=O)c1cccc(Cl)c1)c2-c1ccsc1` (stereo not shown) [Example 33, 2-((3-chlorophenyl)sulfonyl)-N-methyl-1-(thiophen-3-yl)-2,4,5,6-tetrahydrocyclopenta[c]pyrrol-4-amine] came in with an IC50 of 320 nM.

`CNC1CCc2c1cn(S(=O)(=O)c1cccc(Cl)c1)c2-c1cscc1C` (stereo not shown) [Example 34, 2-((3-chlorophenyl)sulfonyl)-N-methyl-1-(4-methylthiophen-3-yl)-2,4,5,6-tetrahydrocyclopenta[c]pyrrol-4-amine] returned an IC50 of 690 nM.

`CNC1CCc2c1cn(S(=O)(=O)c1cccc(Cl)c1)c2-c1cc(C)sc1C` (stereo not shown) [Example 35, 2-((3-chlorophenyl)sulfonyl)-1-(2,5-dimethylthiophen-3-yl)-N-methyl-2,4,5,6-tetrahydrocyclopenta[c]pyrrol-4-amine] showed an IC50 of 840 nM.

Molecule `CNC1CCc2c1cn(S(=O)(=O)c1cccc(Cl)c1)c2-c1cccc(Cl)n1` (stereo not shown) [Example 36, 2-((3-chlorophenyl)sulfonyl)-1-(6-chloropyridin-2-yl)-N-methyl-2,4,5,6-tetrahydrocyclopenta[c]pyrrol-4-amine] had an IC50 of 2540 nM.

Molecule `CNC1CCc2c1cn(S(=O)(=O)c1cccc(Cl)c1)c2-c1cccnc1` (stereo not shown) [Example 37, 2-((3-chlorophenyl)sulfonyl)-N-methyl-1-(pyridin-3-yl)-2,4,5,6-tetrahydrocyclopenta[c]pyrrol-4-amine] displayed an IC50 of 1490 nM.

In the case of `CNC1CCc2c1cn(S(=O)(=O)c1cccc(Cl)c1)c2-c1cccnc1C(F)(F)F` (stereo not shown) [Example 38], it took 5820 nM to reach half-maximal inhibition (IC50).

The molecule `CNC1CCc2c1cn(S(=O)(=O)c1cccc(Cl)c1)c2-c1ccc(C(F)(F)F)nc1` (stereo not shown) [Example 39] displayed an IC50 of 2510 nM.

`CNC1CCc2c1cn(S(=O)(=O)c1cccc(Cl)c1)c2-c1ccc(N2CCCC2)nc1` (stereo not shown) [Example 40]: the IC50 is 7690 nM.

In turn, `CNC1CCc2c1cn(S(=O)(=O)c1cccc(Cl)c1)c2-c1ccc(N2CCOCC2)nc1` (stereo not shown) [Example 41, 2-((3-chlorophenyl)sulfonyl)-N-methyl-1-(6-morpholinopyridin-3-yl)-2,4,5,6-tetrahydrocyclopenta[c]pyrrol-4-amine] returned an IC50 of 3880 nM.

The molecule `CNC1CCc2c1cn(S(=O)(=O)c1cccc(Cl)c1)c2-c1ccncc1` (stereo not shown) [Example 42, 2-((3-chlorophenyl)sulfonyl)-N-methyl-1-(pyridin-4-yl)-2,4,5,6-tetrahydrocyclopenta[c]pyrrol-4-amine] returned a half-inhibitory concentration (IC50) of 5430 nM.

For the molecule `CNC1CCc2c1cn(S(=O)(=O)c1ccccc1)c2-c1ccccc1F` (stereo not shown) [Example 43, 1-(2-fluorophenyl)-N-methyl-2-(phenylsulfonyl)-2,4,5,6-tetrahydrocyclopenta[c]pyrrol-4-amine], the IC50 is 430 nM.

For `CNC1CCc2c1cn(S(=O)(=O)c1ccccc1)c2-c1ccc(C)cc1F` (stereo not shown) [Example 44, 1-(2-fluoro-4-methylphenyl)-N-methyl-2-(phenylsulfonyl)-2,4,5,6-tetrahydrocyclopenta[c]pyrrol-4-amine], the IC50 was 650 nM.

In turn, `CNC1CCc2c1cn(S(=O)(=O)c1ccccc1)c2-c1cc(Cl)ccc1Cl` (stereo not shown) [Example 45, 1-(2,5-dichlorophenyl)-N-methyl-2-(phenylsulfonyl)-2,4,5,6-tetrahydrocyclopenta[c]pyrrol-4-amine] had an IC50 of 550 nM.

The molecule `CNC1CCc2c1cn(S(=O)(=O)c1ccccc1OC)c2-c1ccccc1F` (stereo not shown) [Example 46, 1-(2-fluorophenyl)-2-((2-methoxyphenyl)sulfonyl)-N-methyl-2,4,5,6-tetrahydrocyclopenta[c]pyrrol-4-amine] registered an IC50 of 3270 nM.

In turn, `CNC1CCc2c1cn(S(=O)(=O)c1cccc(F)c1)c2-c1ccc(C)cc1F` (stereo not shown) [Example 47, 1-(2-fluoro-4-methylphenyl)-2-((3-fluorophenyl)sulfonyl)-N-methyl-2,4,5,6-tetrahydrocyclopenta[c]pyrrol-4-amine] displayed a half-maximal inhibitory concentration (IC50) of 470 nM.

`CNC1CCc2c1cn(S(=O)(=O)c1ccccc1Cl)c2-c1ccc(C)cc1F` (stereo not shown) [Example 48, 2-((2-chlorophenyl)sulfonyl)-1-(2-fluoro-4-methylphenyl)-N-methyl-2,4,5,6-tetrahydrocyclopenta[c]pyrrol-4-amine] gave an IC50 of 1000 nM.

The molecule `CNC1CCc2c1cn(S(=O)(=O)c1ccccc1Cl)c2-c1ccc(F)cc1C` (stereo not shown) [Example 49, 2-((2-chlorophenyl)sulfonyl)-1-(4-fluoro-2-methylphenyl)-N-methyl-2,4,5,6-tetrahydrocyclopenta[c]pyrrol-4-amine] gave an IC50 of 2170 nM.

Molecule `CNC1CCc2c1cn(S(=O)(=O)c1ccccc1Cl)c2-c1cc(Cl)ccc1Cl` (stereo not shown) [Example 50, 2-((2-chlorophenyl)sulfonyl)-1-(2,5-dichlorophenyl)-N-methyl-2,4,5,6-tetrahydrocyclopenta[c]pyrrol-4-amine] showed an IC50 of 1050 nM.

Molecule `CNC1CCc2c1cn(S(=O)(=O)c1cccc(F)c1)c2-c1cc(Cl)ccc1Cl` (stereo not shown) [Example 51, 1-(2,5-dichlorophenyl)-2-((3-fluorophenyl)sulfonyl)-N-methyl-2,4,5,6-tetrahydrocyclopenta[c]pyrrol-4-amine] displayed an IC50 of 650 nM.

`CNC1CCc2c1cn(S(=O)(=O)c1cccc(C)c1)c2-c1ccc(C)cc1F` (stereo not shown) [Example 52, 1-(2-fluoro-4-methylphenyl)-N-methyl-2-(m-tolylsulfonyl)-2,4,5,6-tetrahydrocyclopenta[c]pyrrol-4-amine] had an IC50 of 350 nM.

The molecule `CNC1CCc2c1cn(S(=O)(=O)c1cccc(C)c1)c2-c1cc(Cl)ccc1Cl` (stereo not shown) [Example 53, 1-(2,5-dichlorophenyl)-N-methyl-2-(m-tolylsulfonyl)-2,4,5,6-tetrahydrocyclopenta[c]pyrrol-4-amine] displayed an IC50 of 770 nM.

In turn, `CNC1CCc2c1cn(S(=O)(=O)c1cccc(OC)c1)c2-c1ccc(C)cc1F` (stereo not shown) [Example 54, 1-(2-fluoro-4-methylphenyl)-2-((3-methoxyphenyl)sulfonyl)-N-methyl-2,4,5,6-tetrahydrocyclopenta[c]pyrrol-4-amine] gave an IC50 of 410 nM.

Turning to `CNC1CCc2c1cn(S(=O)(=O)c1cccc(OC)c1)c2-c1cc(Cl)ccc1Cl` (stereo not shown) [Example 55, 1-(2,5-dichlorophenyl)-2-((3-methoxyphenyl)sulfonyl)-N-methyl-2,4,5,6-tetrahydrocyclopenta[c]pyrrol-4-amine], the IC50 is 590 nM.

The molecule `CNC1CCc2c1cn(S(=O)(=O)c1cccc(N(C)C)c1)c2-c1ccccc1F` (stereo not shown) [Example 56, 2-((3-(dimethylamino)phenyl)sulfonyl)-1-(2-fluorophenyl)-N-methyl-2,4,5,6-tetrahydrocyclopenta[c]pyrrol-4-amine] displayed an IC50 of 1720 nM.

The molecule `CNC1CCc2c1cn(S(=O)(=O)c1cccc(OC(F)F)c1)c2-c1ccccc1F` (stereo not shown) [Example 57, 2-((3-(difluoromethoxy)phenyl)sulfonyl)-1-(2-fluorophenyl)-N-methyl-2,4,5,6-tetrahydrocyclopenta[c]pyrrol-4-amine] showed an IC50 of 420 nM.

`CNC1CCc2c1cn(S(=O)(=O)c1cccc(C(=O)N3CCOCC3)c1)c2-c1ccccc1F` (stereo not shown) [Example 58, (3-((1-(2-fluorophenyl)-4-(methylamino)-5,6-dihydrocyclopenta[c]pyrrol-2(4H)-yl)sulfonyl)phenyl)(morpholino)methanone]: the IC50 stood at 5780 nM.

`CNC1CCc2c1cn(S(=O)(=O)c1ccc(C)cc1)c2-c1ccccc1F` (stereo not shown) [Example 59, 1-(2-fluorophenyl)-N-methyl-2-tosyl-2,4,5,6-tetrahydrocyclopenta[c]pyrrol-4-amine] gave an IC50 of 1000 nM.

In turn, `CNC1CCc2c1cn(S(=O)(=O)c1ccc(F)cc1)c2-c1ccc(C)cc1F` (stereo not shown) [Example 60, 1-(2-fluoro-4-methylphenyl)-2-((4-fluorophenyl)sulfonyl)-N-methyl-2,4,5,6-tetrahydrocyclopenta[c]pyrrol-4-amine] gave an IC50 of 420 nM.

On to `CNC1CCc2c1cn(S(=O)(=O)c1ccc(F)cc1)c2-c1cc(Cl)ccc1Cl` (stereo not shown) [Example 61, 1-(2,5-dichlorophenyl)-2-((4-fluorophenyl)sulfonyl)-N-methyl-2,4,5,6-tetrahydrocyclopenta[c]pyrrol-4-amine], for which the IC50 is 770 nM.

For the molecule `CNC1CCc2c1cn(S(=O)(=O)c1ccc(-c3ccccc3)cc1)c2-c1ccccc1F` (stereo not shown) [Example 62, 2-([1,1′-biphenyl]-4-ylsulfonyl)-1-(2-fluorophenyl)-N-methyl-2,4,5,6-tetrahydrocyclopenta[c]pyrrol-4-amine], the half-maximal inhibitory concentration (IC50) was 8750 nM.
